In US9434994B2, “Methods for prediction of clinical outcome to epidermal growth factor receptor inhibitors by non-small cell lung cancer patients” (The Regents of the University of Colorado, a body corporate, priority 2004, dated 2016):
Where “and” joins values, the source holds several entries; their conditions need not be identical. Equal entries are not always repeated. Where two headings read alike, the source gives them in different places.

Test system: advanced non-small-cell lung cancer patients
[1] = HER2 FISH- and/or EGFR mutation-
[2] = all 85 patients with EGFR mutation and P-Akt
[3] = all 89 patients with EGFR mutation analysis
[4] = all 98 patients with EGFR FISH and P-Akt
[5] = all 98 patients with EGFR IHC and P-Akt
[6] = all 102 patients, Example 1 analysis

Experimental: Eligibility included histologically confirmed NSCLC patients with measurable, locally advanced or metastatic disease, who had progressed or relapsed after chemotherapy, and patients ineligible for chemotherapy because they were elderly, had poor performance status, or comorbid medical condition. Before trial inclusion, smoking status was assessed and patients were classified as never, former (smoking cessation >6 months prior to trial inclusion), or current smokers (cessation <6 months before trial inclusion or active smoker).
Patients were evaluated for response according to the RECIST criteria (30). Tumor response was assessed by computer tomography scan every two months, with a confirmatory evaluation to be repeated in responding patients at least 4 weeks after the initial determination of response. […] Survival (OS) was calculated from the date of therapy initiation to the date of death or last contact.
Differences between the FISH groups were compared by Fisher's exact test or χ^2 test for qualitative variables and by t-student test or ANOVA for continuous variables. Normality of the distribution was assessed by Kolmogorov-Smirnov test. […] Risk factors associated with survival were evaluated using Cox's proportional-hazards regression model with a step-down procedure (33). Only those variables with significant results in univariate analysis were included in the multivariate analysis. The criteria for variable removal was the likelihood ratio statistic based on the maximum partial likelihood estimated (default p-value=0.10 for removal from the model).
Complete clinical information and tissue blocks were available from 80 out of 106 patients enrolled in the Akt clinical trial (Cappuzzo et al., ibid.), and from an additional 22 patients in the Expanded Access Study who were treated consecutively at the end of the Akt study and followed in the same way as patients in the Akt trial.
Eligibility for both studies included histologically confirmed NSCLC with measurable, locally advanced or metastatic disease, progressing or relapsing after chemotherapy or with medical contraindications for chemotherapy. Patients had performance status ranging from grade 0 to 2. Performance status was defined according to Eastern Cooperative Oncology Group (Oken et al., 1982) and considered grade 0 when the patient was fully active and able to perform all pre-disease activities without restriction, grade 1 when the patient was restricted in physically strenuous activity but ambulatory and able to perform work of a light or sedentary nature, and grade 2 when the patient was ambulatory and capable of all self-care but unable to perform any work activities.
Tumor response was assessed by computer tomography scan after 2 months, with a confirmatory evaluation to be repeated in responders and in patients with stable disease at least 4 weeks after the initial determination of response. […] Survival was calculated from the date of therapy initiation to the date of death or to the date of last contact.
Differences between and among groups were compared using Fisher's exact test or Pearson's chi square test for qualitative variables and using student's t test or analysis of variance for continuous variables. Normality of the distribution was assessed using the Kolmogorov-Smirnov test (Curiel et al., 1990).

## COc1cc2ncnc(Nc3ccc(F)c(Cl)c3)c2cc1OCCCN1CCOCC1 [gefitinib]
HER2 FISH+/EGFR IHC+
  TTP: 12.3 months
HER2 FISH+/EGFR IHC-
  OS: 3.3 months
  TTP: 2.3 months
HER2 FISH+/EGFR mutation+
  DCR: 87.5%
  OR: 87.5%
  OS: not reached
  TTP: 15.5 months
HER2 FISH+/EGFR mutation-
  OR: no patient responded
  TTP: 2.3 months
HER2 FISH-
  DCR: 33.3%
  OR: 6.4%
  OS: 8.4 months
  TTP: 2.7 months
HER2 FISH- and/or EGFR FISH-
  DCR: 33.0%
  OR: 6.8%
  median OS: 8.3 months
  median TTP: 2.6 months
HER2 FISH- and/or EGFR IHC-
  DCR: 34.5%
  OR: 7.1%
  OS: 8.4 months
  TTP: 2.6 months
[1]
  DCR: 31.3%
  OR: 5.0%
  OS: 8.3
  TTP: 2.6 months
HER2 FISH-/EGFR FISH+
  DCR: 30.0%
  OR: 10.0%
  median OS: 9.3 months
  median TTP: 5.3 months
HER2 FISH-/EGFR FISH-
  OR: 1.6%
  median OS: 7.3 months
  median TTP: 2.6 months
HER2 FISH-/EGFR IHC+
  OR: 11.1%
  OS: 11.3 months
  TTP: 4.2 months
HER2 FISH-/EGFR IHC-
  DCR: 13.7%
  OR: 0%
  OS: 5.0 months
  TTP: 2.1 months
HER2 FISH-/EGFR mutation+
  DCR: 28.5%
  OR: 14.2%
  OS: 5.7
  TTP: 2.8 months
HER2 FISH-/EGFR mutation-
  DCR: 32.2%
  OR: 4.8%
Italian Cohort, Table 12
  Disease Control Rate: 39%
  Median Survival: 9 (6-11)
  Median Time to Progression: 3 (2-4)
  One-YR Survival: 41% (31-51)
  Overall Response: 13%
P-Akt negative
  Disease Control Rate: 22%
  response rate: 0%
  time to progression: 2.1 months
P-Akt positive
  Survival: 11.4 months
  response rate: 21%
  time to progression: 4.2 months
adenocarcinoma
  1-year Cumulative Survival ± SD: 45 ± 7%
  Median Survival: 11.3 months
  Median Time to Progression: 3.2 months
  Objective Response: 8/15%
[2]
  Median Time to Progression: 2.9 months
  Objective Response: 12/14%
[3]
  1-year survival: 41 ± 5
  MS: 9.4 mo
  OR: 12 (13%)
  TTP: 2.9 mo
[4]
  1-year Cumulative Survival ± SD: 47 ± 6%
  Disease Control Rate: 40/40%
  Median Survival: 11.5 months
  Median Time to Progression: 4.5 months
  Objective Response: 14/14%
All 98 patients with EGFR IHC
  MS (median overall survival): 9.5 mo
  OR (objective response): 14 (14%)
  PD (progressive disease): 58 (59%)
  TTP: 2.9 mo
[5]
  1-year Cumulative Survival ± SD: 45 ± 6%
  Disease Control Rate: 40/40%
  Median Survival: 11.3 months
  Median Time to Progression: 3.2 months
  Objective Response: 14/14%
All 102 patients
  Complete response (CR): 1%
  Partial responses (PR): 12.7%
[6]
  % Patients without disease progression at 12 months: 18.6%
  Complete and Partial Response: 13.7% and 14%
  Disease Control Rate: 39.2% and 39%
  Median Time to Progression: 2.9 months
  One-year Survival Rate: 45.1%
  Progressive Disease: 60.8%
  Stable Disease: 25.5%
All 102 patients, Table 1
  Median Time to Progression: 2.9 months
  Objective Response: 14% and 14/14%
  Progressive Disease: 60% and 62/60%
bronchioloalveolar
  1-year Cumulative Survival ± SD: 67 ± 16%
  Median Survival: 16.5 months
  Median Time to Progression: 3.0 months
  Objective Response: 3/33%
  Progressive Disease: 5/56%
Current smoker
  1-year Cumulative Survival ± SD: 30 ± 6%
  Median Survival: 4.5 months
  Median Time to Progression: 2.3 months
  Objective Response: 3/6%
  Progressive Disease: 39/72%
female
  1-year Cumulative Survival ± SD: 48 ± 9%
  Median Survival: 11.3 months
  Median Time to Progression: 5.2 months
  Progressive Disease: 16/46%
females, Example 1 analysis
  median TTP: 4.5 months
Former and current smokers
  response rate: 20.8%
Former smoker
  1-year Cumulative Survival ± SD: 55 ± 9%
  Median Time to Progression: 3.6 months
  Objective Response: 5/15%
  Progressive Disease: 17/51%
Large cell
  1-year Cumulative Survival ± SD: 0 ± 0%
  Median Survival: 0.8 months
  Median Time to Progression: 0.8 months
  Objective Response: 0%
  Progressive Disease: 2/100%
male
  Median Time to Progression: 2.7 months
  Objective Response: 6.0% and 4/6%
males, Example 1 analysis
  median TTP: 2.7 months
Never smoker
  1-year Cumulative Survival ± SD: 47 ± 14%
  Median Survival: 10.9 months
  Median Time to Progression: 5.3 months
  Progressive Disease: 6/40%
Performance status 0
  Median Time to Progression: 2.6 months
  Objective Response: 5/10%
  Progressive Disease: 32/65%
Performance status 1
  1-year Cumulative Survival ± SD: 47 ± 8%
  Median Survival: 10.9 months
  Median Time to Progression: 4.2 months
  Progressive Disease: 22/54%
Performance status 2
  1-year Cumulative Survival ± SD: 22 ± 13%
  Median Survival: 2.7 months
  Median Time to Progression: 2.1 months
  Objective Response: 2/17%
Squamous cell
  1-year Cumulative Survival ± SD: 22 ± 9%
  Median Time to Progression: 2.2 months
  Objective Response: 2/8%
Stage III
  1-year Cumulative Survival ± SD: 36 ± 13%
  Median Time to Progression: 6.0 months
  Objective Response: 1/7%
Stage IV
  Median Time to Progression: 2.7 months
  Objective Response: 13/15%
undifferentiated
  1-year Cumulative Survival ± SD: 45 ± 15%
  Median Time to Progression: 2.1 months
  Objective Response: 1/9%
